Tested on: HFD-fed wild-type mice
Test: Sphingolipid levels in tissues and serum of HFD-fed mice by mass spectrometry
Assay type: in vivo, mouse
Settings: average ± SD
Procedure: Six-week-old wild-type male mice were fed HFD for 4 weeks or 7 months In total, 5 mg/Kg of PBS, Adiporon, AdipoRonPEG5, AdipoRonPEG6HTL were injected twice a day for 5 days. After 5 days of treatment, systemic test is performed, and serum (Before and after treatment), subcutaneous, epididymal, liver, heart samples were harvested for qPCR and sphingolipid analysis.
Flash-frozen tissue samples (~40 mg) in a borosilicate glass tube were quenched with 2.0 ml of organic extraction solvent (isopropanol: ethyl acetate, 15:85; v:v) and homogenized with a mechanical tissue disruptor. Immediately afterward, 20 μl of organic internal standard solution was added (Ceramide/Sphingoid Internal Standard Mixture II diluted 1:10 in ethanol). The mixture was vortexed for 20 s and sonicated in ultrasonic bath for 40 min at 40°C. The organic extract was allowed to reach room temperature, and 1.5 ml of HPLC water was added and a two-phase liquid-liquid extraction was performed. The upper phase was transferred to a new clean tube, and the lower aqueous phase containing the protein pellet was re-extracted with additional 2.0 ml of organic extraction solvent. The organic phases were combined and dried under nitrogen stream at 40°C. Dried extracts were stored at –80°C until analysis. For analysis of ceramides and sphingoid base species, the dried residues were reconstituted in 200 μl of methanol. Sphingomyelins required a sample dilution of 1:50 in methanol prior to analysis. Serum sphingolipids were extracted using a similar methodology requiring 25 μl of serum.
Liver, subcutaneous adipose tissue, pancreas, pancreatic islets were initially homogenized in 500 μl of cold PBS using an ultrasonic probe disruptor and keeping the sample on ice during sonication. In total, 50 μl of aqueous homogenate was aliquoted for protein determination. In total, 400 μl of the lysate was immediately quenched in 2.0 ml of organic extraction solvent.
In total, 5 μl of reconstituted samples was injected into an LC/MS/MS system for the analysis of ceramides and sphingoid bases, and 1 μl injection was required for the analysis of sphingomyelins. The system consisted of a Shimadzu LCMS-8050 triple-quadrupole mass spectrometer with the dual ion source operating in electrospray positive ionization mode. The mass spectrometer is coupled to a Shimadzu Nexera X2 UHPLC system equipped with three solvent delivery modules LC-30AD, three degassing units DGU-20A5R, an autosampler SIL-30ACMP, and a column oven CTO-20AC operating at 40°C (Shimadzu Scientific Instruments, Columbia, MD). Six sphingoid bases (d18:1 sphingosine, d18:1 sphingosine-1-phosphate, d18:1 deoxysphingosine, d18:0 sphinganine, d18:0 sphinganine-1-phosphate, d18:0 deoxysphinganine) and […] ceramide species and their metabolites (C16:0, C16:0 dihydroceramide, C16:0 glucosylceramide, C16:0 lactosylceramide, C16:0 sphingomyelin, C18:0, C18:0 dihydroceramide, C18:0 glucosylceramide, C18:0 sphingomyelin, C18:1, C20:0, C22:0, C22:0 glucosylceramide, C24:0, C24:0 dihydroceramide, C24:0 lactosylceramide, C24:0 sphingomyelin, C24:1, C24:1 dihydroceramide, C24:1 glucosylceramide, C24:1 sphingomyelin). Quantitative analysis of sphingolipids was achieved using selective reaction monitoring scan mode. Lipid separation was achieved by reverse phase LC on a 2.1 (i.d.) × 150 mm Ascentis Express C8, 2.7 micron (Supelco, Bellefonte, PA) column under gradient elution, using three different mobile phases: eluent A consisting of methanol/water/formic acid, 600/400/0.8, v/v/v with 5 mM ammonium formate, eluent B consisting of methanol/formic acid, 1,000/0.8, v/v with 5 mM ammonium formate, and eluent C consisting of CH3OH/CH2Cl2 350/650. The concentration of each metabolite was determined according to calibration curves using the peak-area ratio of analyte versus corresponding internal standard. Calibration curves were generated using serial dilutions of each target analyte.

[1] = scWAT, 5 mg/kg twice a day 5 days
[2] = serum at day 0 (before treatment)
[3] = serum at day 5, 5 mg/kg twice a day 5 days

Structure (SMILES): O=C(COc1ccc(C(=O)c2ccccc2)cc1)NC1CCN(Cc2ccccc2)CC1 [AdipoRon]
- Hexosyl 20:0 [1]: 615610.3 ± 235007.39 pg/mg
- Hexosyl 22:0 [1]: 6375434.2 ± 2782528.88 pg/mg
- Hexosyl 24:0 [1]: 21878746.0 ± 11579620.12 pg/mg
- Hexosyl 24:1 [1]: 11496554.3 ± 5647659.03 pg/mg
- Lactosyl 16:0 [1]: 45792.6 ± 45798.33 pg/mg
- Lactosyl 18:0 [1]: 0.0 ± 0.0 pg/mg
- Lactosyl 22:0 [1]: 49816.7 ± 23898.61 pg/mg
- Lactosyl 24:1 [1]: 86367.6 ± 22529.94 pg/mg
- Lactosyl C24:0 [1]: 55460.5 ± 33843.98 pg/mg
- Sphingaine1P [1]: 35443.6 ± 15686.23 pg/mg
- Sphinganine [1]: 29337.6 ± 16700.68 pg/mg
- Sphingosine [1]: 49182.2 ± 32181.22 pg/mg
- Sphingosine1P [1]: 37612.5 ± 17941.43 pg/mg
- dCer 16:0 [1]: 14580.7 ± 4393.04 pg/mg
- dCer 18:0 [1]: 17597.9 ± 5214.49 pg/mg
- dCer 20:0 [1]: 80869.1 ± 48824.3 pg/mg
- dCer 22:0 [1]: 84488 ± 14825 pg/mg
- dCer 24:0 [1]: 96632.5 ± 27938.2 pg/mg
- dCer 24:1 [1]: 93338.7 ± 29289.58 pg/mg
- Cer 14:0 [2]: 8402.0 ± 1707.95 pg/mg
- Cer 16:0 [2]: 25341.1 ± 4464.54 pg/mg
- Cer 18:0 [2]: 10061.4 ± 1406.12 pg/mg
- Cer 18:1 [2]: 0 pg/mg
- Cer 20:0 [2]: 144673.7 ± 32033.84 pg/mg
- Cer 22:0 [2]: 2303972.0 ± 309633.22 pg/mg
- Cer 24:0 [2]: 1443539.8 ± 157739.65 pg/mg
- Cer 24:1 [2]: 986691.7 ± 101968.89 pg/mg
- Cer 26:0 [2]: 10057.2 ± 2818.25 pg/mg
- Cer 26:1 [2]: 0 pg/mg
- DeoxySphinganie [2]: 0.0 ± 0.0 pg/mg
- Deoxysphingosine [2]: 0.0 ± 0.0 pg/mg
- Hexosyl 14:0 [2]: 2960.2 ± 601.74 pg/mg
- Hexosyl 16:0 [2]: 3024488.2 ± 155463.13 pg/mg
- Hexosyl 18:0 [2]: 47892.4 ± 4333.97 pg/mg
- Hexosyl 20:0 [2]: 182974.2 ± 30498.44 pg/mg
- Hexosyl 22:0 [2]: 12192915.9 ± 1475247.57 pg/mg
- Hexosyl 24:0 [2]: 1341147.2 ± 57498.17 pg/mg
- Hexosyl 24:1 [2]: 3535698.6 ± 346272.3 pg/mg
- Lactosyl 16:0 [2]: 94073.6 ± 8945.71 pg/mg
- Lactosyl 18:0 [2]: 0.0 ± 0.0 pg/mg
- Lactosyl 22:0 [2]: 60785.8 ± 9718.01 pg/mg
- Lactosyl 24:1 [2]: 85880.2 ± 22412.15 pg/mg
- Lactosyl C24:0 [2]: 103502.4 ± 17366.51 pg/mg
- Sphingaine1P [2]: 250934.3 ± 36218.42 pg/mg
- Sphinganine [2]: 45226.5 ± 8665.07 pg/mg
- Sphingosine [2]: 43193.4 ± 8183.0 pg/mg
- Sphingosine1P [2]: 774207.2 ± 25661.64 pg/mg
- dCer 16:0 [2]: 16437.5 ± 2669.42 pg/mg
- dCer 18:0 [2]: 10213.1 ± 2375.68 pg/mg
- dCer 20:0 [2]: 3716.7 ± 0.0 pg/mg
- dCer 22:0 [2]: 335078.3 ± 58715.16 pg/mg
- dCer 24:0 [2]: 212159.3 ± 42613.52 pg/mg
- dCer 24:1 [2]: 111963.9 ± 12779.64 pg/mg
- Cer 14:0 [3]: 9165.8 ± 853.97 pg/mg
- Cer 16:0 [3]: 17212.8 ± 1488.18 pg/mg
- Cer 18:0 [3]: 8049.1 ± 1033.29 pg/mg
- Cer 18:1 [3]: 0 pg/mg
- Cer 20:0 [3]: 135037.6 ± 17909.21 pg/mg
- Cer 22:0 [3]: 1736100.3 ± 185474.31 pg/mg
- Cer 24:0 [3]: 1412623.3 ± 289722.52 pg/mg
- Cer 24:1 [3]: 771667.5 ± 65564.62 pg/mg
- Cer 26:0 [3]: 11959.9 ± 2614.25 pg/mg
- Cer 26:1 [3]: 0 pg/mg
- DeoxySphinganie [3]: 0.0 ± 0.0 pg/mg
- Deoxysphingosine [3]: 0.0 ± 0.0 pg/mg
- Hexosyl 14:0 [3]: 2960.2 ± 601.74 pg/mg
- Hexosyl 16:0 [3]: 3736352.2 ± 191696.45 pg/mg
- Hexosyl 18:0 [3]: 63748.7 ± 18002.6 pg/mg
- Hexosyl 20:0 [3]: 245486.5 ± 74132.09 pg/mg
- Hexosyl 22:0 [3]: 9390882.1 ± 688490.25 pg/mg
- Hexosyl 24:0 [3]: 1430423.2 ± 157556.06 pg/mg
- Hexosyl 24:1 [3]: 3036231.9 ± 367214.43 pg/mg
- Lactosyl 16:0 [3]: 94265.2 ± 16983.56 pg/mg
- Lactosyl 18:0 [3]: 0.0 ± 0.0 pg/mg
- Lactosyl 22:0 [3]: 58253.0 ± 5503.82 pg/mg
- Lactosyl 24:1 [3]: 124049.2 ± 19300.14 pg/mg
- Lactosyl C24:0 [3]: 122340.7 ± 11760.71 pg/mg
- Sphingaine1P [3]: 423112.6 ± 48511.44 pg/mg
- Sphinganine [3]: 11725.4 ± 1939.02 pg/mg
- Sphingosine [3]: 18235.7 ± 1946.06 pg/mg
- Sphingosine1P [3]: 1139765.2 ± 69403.83 pg/mg
- dCer 16:0 [3]: 7198.9 ± 1199.82 pg/mg
- dCer 18:0 [3]: 4034.8 ± 845.83 pg/mg
- dCer 20:0 [3]: 2973.3 ± 1017.85 pg/mg
- dCer 22:0 [3]: 174957.8 ± 18878.67 pg/mg
- dCer 24:0 [3]: 105210.1 ± 6589.37 pg/mg
- dCer 24:1 [3]: 49553.1 ± 7051.68 pg/mg
